Reference: article PMC8222254, “Self-assembly of an anion receptor with metal-dependent kinase inhibition and potent in vitro anti-cancer properties” (Nature Communications, 2021)
Where “and” joins values, the source holds several entries; their conditions need not be identical. Identical values can stand only once.

Columns and labels:
Test in all cases: Kinase inhibition screen, cell-free 33P ATP assay at 10 μM
Type in all cases: biochemical
[1] = target: T1, 140 purified human kinases (Homo sapiens, UniProt Q9NZJ5)
T1 sequence (Q9NZJ5 30-1116): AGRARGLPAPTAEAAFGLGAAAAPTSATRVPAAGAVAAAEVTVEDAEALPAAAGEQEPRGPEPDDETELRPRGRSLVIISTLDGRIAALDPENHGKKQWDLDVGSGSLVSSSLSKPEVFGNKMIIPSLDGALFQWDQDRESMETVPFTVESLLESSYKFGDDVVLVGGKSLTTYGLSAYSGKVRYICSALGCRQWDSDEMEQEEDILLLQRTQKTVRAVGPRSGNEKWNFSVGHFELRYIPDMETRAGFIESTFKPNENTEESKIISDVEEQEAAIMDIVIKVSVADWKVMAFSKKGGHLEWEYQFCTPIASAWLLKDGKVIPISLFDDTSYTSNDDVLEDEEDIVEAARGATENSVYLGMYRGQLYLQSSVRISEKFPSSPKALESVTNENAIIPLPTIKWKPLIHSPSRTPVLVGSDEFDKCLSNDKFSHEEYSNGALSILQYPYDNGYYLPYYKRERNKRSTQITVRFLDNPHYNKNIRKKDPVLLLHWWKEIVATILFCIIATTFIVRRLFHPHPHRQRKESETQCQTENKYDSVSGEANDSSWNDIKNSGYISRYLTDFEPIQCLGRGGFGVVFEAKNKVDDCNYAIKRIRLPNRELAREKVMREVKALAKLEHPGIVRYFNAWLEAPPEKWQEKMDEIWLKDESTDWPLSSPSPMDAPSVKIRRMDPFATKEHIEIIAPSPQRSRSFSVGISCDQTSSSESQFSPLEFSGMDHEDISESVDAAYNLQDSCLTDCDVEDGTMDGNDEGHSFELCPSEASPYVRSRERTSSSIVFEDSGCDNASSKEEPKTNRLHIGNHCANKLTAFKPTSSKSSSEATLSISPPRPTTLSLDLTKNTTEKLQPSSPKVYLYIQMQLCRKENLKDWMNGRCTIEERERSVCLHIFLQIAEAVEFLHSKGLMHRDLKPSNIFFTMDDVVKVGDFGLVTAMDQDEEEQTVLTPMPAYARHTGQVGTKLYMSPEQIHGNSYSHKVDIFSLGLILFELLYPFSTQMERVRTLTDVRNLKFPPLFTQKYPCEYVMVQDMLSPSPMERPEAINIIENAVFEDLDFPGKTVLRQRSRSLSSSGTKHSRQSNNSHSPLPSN
Outline: (§1)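 Each complex tested in duplicate at 10 μM; cell-free radiometric assay using ^33P ATP on purified enzymes. Hits mapped by HGNC symbol onto the kinome tree.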

[2] = target: T2, 140 purified human kinases (Homo sapiens, UniProt Q13188)
T2 sequence (Q13188 1-491): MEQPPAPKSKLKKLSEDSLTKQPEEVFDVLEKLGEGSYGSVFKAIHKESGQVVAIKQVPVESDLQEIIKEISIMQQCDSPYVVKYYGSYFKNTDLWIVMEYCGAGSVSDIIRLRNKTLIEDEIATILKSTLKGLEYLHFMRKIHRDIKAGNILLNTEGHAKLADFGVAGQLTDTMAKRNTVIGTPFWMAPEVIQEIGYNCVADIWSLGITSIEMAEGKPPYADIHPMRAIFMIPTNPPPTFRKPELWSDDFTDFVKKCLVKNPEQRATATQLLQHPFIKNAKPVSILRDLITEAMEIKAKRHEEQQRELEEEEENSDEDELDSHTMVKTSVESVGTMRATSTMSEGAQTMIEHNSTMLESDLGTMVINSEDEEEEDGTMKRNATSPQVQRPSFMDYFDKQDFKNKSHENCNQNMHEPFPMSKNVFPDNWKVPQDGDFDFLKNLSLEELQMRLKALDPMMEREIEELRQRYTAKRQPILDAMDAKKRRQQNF
Outline: as §1

[3] = target: 140 purified human kinases (Homo sapiens, UniProt O95747); conditions: for % Activity Run 1 / % Activity Run 2: 10 µM
Sequence of 140 purified human kinases (Homo sapiens, UniProt O95747) (O95747 whole entry): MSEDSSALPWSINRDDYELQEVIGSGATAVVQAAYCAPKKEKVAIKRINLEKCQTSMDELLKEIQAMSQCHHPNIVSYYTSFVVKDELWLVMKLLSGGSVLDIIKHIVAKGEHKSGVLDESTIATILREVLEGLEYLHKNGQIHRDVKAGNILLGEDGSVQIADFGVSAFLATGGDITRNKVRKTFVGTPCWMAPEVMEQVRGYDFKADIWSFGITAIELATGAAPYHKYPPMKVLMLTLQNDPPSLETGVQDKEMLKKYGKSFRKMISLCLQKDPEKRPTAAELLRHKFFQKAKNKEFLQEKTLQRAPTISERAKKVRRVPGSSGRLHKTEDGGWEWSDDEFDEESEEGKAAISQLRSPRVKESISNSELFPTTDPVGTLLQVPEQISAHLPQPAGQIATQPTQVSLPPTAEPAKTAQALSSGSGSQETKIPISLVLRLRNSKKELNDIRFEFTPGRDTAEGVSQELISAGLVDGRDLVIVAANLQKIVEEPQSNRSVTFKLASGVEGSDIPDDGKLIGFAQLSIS
Outline: as §1

[4] = target: 140 purified human kinases (Homo sapiens, UniProt P17612); conditions: PKA
Outline: as §1

## [Cu+2].[Cu+2].[Cu+2].c1ccc(-c2csc(NCCN(CCNc3nc(-c4ccccn4)cs3)CCNc3nc(-c4ccccn4)cs3)n2)nc1.c1ccc(-c2csc(NCCN(CCNc3nc(-c4ccccn4)cs3)CCNc3nc(-c4ccccn4)cs3)n2)nc1 [[L2Cu3]6+]
[1]; EIF2AK3
  % Inhibition Run 1: 39.9%
  % Inhibition Run 2: 30.4%
  % Inhibition, Mean: 35%
  mean % activity: 65%
[1]; EIF2AK3, Run 1
  % activity: 60.1%
[1]; EIF2AK3, Run 2
  % activity: 69.6%
[2]; MST2
  % Inhibition Run 1: 38.8%
  % Inhibition Run 2: 41.9%
  % Inhibition, Mean: 40%
  mean % activity: 60%
[2]; MST2, Run 1
  % activity: 61.2%
[2]; MST2, Run 2
  % activity: 58.1%
[3]; OSR1
  % Activation, Mean value: 48%
  % Inhibition Run 1: -39.6%
  % Inhibition Run 2: -55.9%
  % Inhibition, Mean: -48%
  mean % activity: 148%
  % Activity Run 1: 139.60%
  % Activity Run 2: 155.90%
[3]; OSR1, Run 1
  % activity: 139.6%
[3]; OSR1, Run 2
  % activity: 155.9%
[4]
  % Inhibition Run 1: 46.4%
  % Inhibition Run 2: 48.2%
  % Inhibition, Mean: 47%
  mean % activity: 53%
[4]; Run 1
  % activity: 53.6%
[4]; Run 2
  % activity: 51.8%

## CC(=O)[O-].CC(=O)[O-].CC(=O)[O-].CC(=O)[O-].CC(=O)[O-].CC(=O)[O-].[Zn+2].[Zn+2].[Zn+2].c1ccc(-c2csc(NCCN(CCNc3nc(-c4ccccn4)cs3)CCNc3nc(-c4ccccn4)cs3)n2)nc1.c1ccc(-c2csc(NCCN(CCNc3nc(-c4ccccn4)cs3)CCNc3nc(-c4ccccn4)cs3)n2)nc1 [[L2Zn3]6+]
[1]; EIF2AK3
  % Inhibition, Mean: 37%
  % Inhibition, Run 1 / Run 2: 45% and 29%
  mean % activity: 63%
[1]; EIF2AK3, duplicate runs
  % activity: 55% and 71%
[2]; MST2
  % Inhibition, Mean: 10%
  % Inhibition, Run 1 / Run 2: 14% and 6%
  mean % activity: 90%
[2]; MST2, duplicate runs
  % activity: 86% and 94%
[3]; OSR1
  % Activation, Mean value: 38%
  % Inhibition, Mean: -38%
  % Inhibition, Run 1 / Run 2: -37% and -40%
  mean % activity: 138%
  % Activity Run 1: 137.0%
  % Activity Run 2: 140.0%
[3]; OSR1, duplicate runs
  % activity: 137% and 140%
[4]
  % Activation, Mean value: 7%
  % Inhibition, Mean: -7%
  mean % activity: 107%
[4]; duplicate runs
  % activity: 101% and 114%
